Laboratory results reported in ChEMBL document CHEMBL4334511, “Trivirensols: Selectively Bacteriostatic Sesquiterpene Trimers from the Australian Termite Nest-Derived Fungus Trichoderma virens CMB-TN16” (J Nat Prod, 2019).
Activity calls are given as the source filed them. The rule behind the calls is not given here.

Columns and labels:
SW-620 = assay: Cytotoxicity against human SW620 cells assessed as reduction in cell viability upto 30 uM incubated for 48 hrs by MTT assay; assay type: cell-based; conditions: sw-620, 48 h
NCI-H460 = assay: Cytotoxicity against human NCI-H460 cells assessed as reduction in cell viability upto 30 uM incubated for 48 hrs by MTT assay; assay type: cell-based; conditions: nci-h460, 48 h
Candida albicans = assay: Antifungal activity against Candida albicans ATCC 90028 assessed as reduction in fungal growth at 0.01 to 30 uM incubated for 24 hrs by spectrophotometry based broth microdilution assay; assay type: functional, organism-based
Bacillus subtilis = assay: Antibacterial activity against Bacillus subtilis ATCC 6633 assessed as reduction in […] growth at 0.01 to 30 uM incubated for 24 hrs by spectrophotometry based broth microdilution assay; assay type: functional, organism-based
Staphylococcus aureus [1] = assay: Antibacterial activity against Staphylococcus aureus ATCC 9144 assessed as reduction in […] growth at 0.01 to 30 uM incubated for 24 hrs by spectrophotometry based broth microdilution assay; assay type: functional, organism-based
Streptococcus pyogenes = assay: Antibacterial activity against Streptococcus pyogenes ATCC 12344 assessed as reduction in […] growth at 0.01 to 30 uM incubated for 24 hrs by spectrophotometry based broth microdilution assay; assay type: functional, organism-based
Escherichia coli [2] = assay: Antibacterial activity against Escherichia coli ATCC 11775 assessed as reduction in […] growth at 0.01 to 30 uM incubated for 24 hrs by spectrophotometry based broth microdilution assay; assay type: functional, organism-based
Staphylococcus aureus [3] = assay: Antibacterial activity against methicillin-resistant Staphylococcus aureus AUS-RBWH-MRSA-02 assessed as reduction in […] growth at 0.01 to 30 uM incubated for 24 hrs by spectrophotometry based broth microdilution assay; assay type: functional, organism-based
Escherichia coli [4] = assay: Antibacterial activity against Escherichia coli KUW-kw-AmH-11 assessed as reduction in […] growth at 0.01 to 30 uM incubated for 24 hrs by spectrophotometry based broth microdilution assay; assay type: functional, organism-based
Pseudomonas aeruginosa [5] = assay: Antibacterial activity against IMP producing Pseudomonas aeruginosa UAE-DBI-ZMH-91 assessed as reduction in […] growth at 0.01 to 30 uM incubated for 24 hrs by spectrophotometry based broth microdilution assay; assay type: functional, organism-based
Pseudomonas aeruginosa [6] = assay: Antibacterial activity against VIM producing Pseudomonas aeruginosa SA-EP-KFUH-40 assessed as reduction in […] growth at 0.01 to 30 uM incubated for 24 hrs by spectrophotometry based broth microdilution assay; assay type: functional, organism-based
Klebsiella pneumoniae [7] = assay: Antibacterial activity against NDM-producing Klebsiella pneumoniae SA-Rd-KAMC-037 assessed as reduction in […] growth at 0.01 to 30 uM incubated for 24 hrs by spectrophotometry based broth microdilution assay; assay type: functional, organism-based
Klebsiella pneumoniae [8] = assay: Antibacterial activity against OXA-48-producing Klebsiella pneumoniae SA-Rd-KAMC-014 assessed as reduction in […] growth at 0.01 to 30 uM incubated for 24 hrs by spectrophotometry based broth microdilution assay; assay type: functional, organism-based
Acinetobacter baumannii = assay: Antibacterial activity against OXA-23-producing Acinetobacter baumannii SA-Rd-KAMC-083 assessed as reduction in […] growth at 0.01 to 30 uM incubated for 24 hrs by spectrophotometry based broth microdilution assay; assay type: functional, organism-based
Enterococcus faecalis [9] = assay: Antibacterial activity against vancomycin-resistant Enterococcus faecalis AUS-RBWH-VRE-01 assessed as reduction in […] growth incubated for 24 hrs by spectrophotometry based broth microdilution assay; assay type: functional, organism-based
Enterococcus faecalis [10] = assay: Antibacterial activity against vancomycin-resistant Enterococcus faecalis AUS-RBWH-VRE-01 assessed as fold reduction in growth by measuring colony formation unit at 30 uM incubated for 24 hrs by time kill assay; assay type: functional

Structure (SMILES)	Activity (SW-620)	Activity (NCI-H460)	Activity (Candida albicans)	Activity (Bacillus subtilis)	Activity (Staphylococcus aureus [1])	Activity (Streptococcus pyogenes)	Activity (Escherichia coli [2])	Activity (Staphylococcus aureus [3])	Activity (Escherichia coli [4])	Activity (Pseudomonas aeruginosa [5])	Activity (Pseudomonas aeruginosa [6])	Activity (Klebsiella pneumoniae [7])	Activity (Klebsiella pneumoniae [8])	Activity (Acinetobacter baumannii)	IC50 (Enterococcus faecalis [9])	Activity (Enterococcus faecalis [10])	IC50 (Enterococcus faecalis [9]; Enterococcus faecalis, AUS-RBWH-VRE-01, 24 h, read-out: IC50)	fold change (FC) (Enterococcus faecalis [10])
CC(C)[C@H]1CC[C@@]2(OC(=O)/C(=C/[C@H]3C4=C(CC[C@@H]3C(C)C)COC4=O)CO)COC(=O)[C@H]2[C@@H]1/C=C(\CO)C(=O)O	Non-Toxic	Non-Toxic	inactive	inactive	inactive	inactive	inactive	inactive	inactive	inactive	inactive	inactive	inactive	inactive	–	–	–	–
CC(C)[C@H]1CC[C@@](O)(COC(=O)/C(=C/[C@@H]2[C@@H](C(C)C)CC[C@@]3(OC(=O)/C(=C/[C@H]4C=C(CO)CC[C@@H]4C(C)C)CO)COC(=O)[C@@H]23)CO)[C@H]2C(=O)OCC(C(=O)O)=C[C@H]12	Non-Toxic	Non-Toxic	inactive	inactive	inactive	inactive	inactive	inactive	inactive	inactive	inactive	inactive	inactive	inactive	Not Active	–	–	–
CC(C)[C@H]1CC[C@@](O)(COC(=O)/C(=C/[C@H]2C3=C(CC[C@@H]2C(C)C)COC3=O)CO)[C@@H](C(=O)O)[C@@H]1/C=C(\CO)C(=O)O	Non-Toxic	Non-Toxic	inactive	inactive	inactive	inactive	inactive	inactive	inactive	inactive	inactive	inactive	inactive	inactive	–	Active	–	–
CC(C)[C@H]1CC[C@@](O)(COC(=O)/C(=C/[C@H]2C=C(CO)CC[C@@H]2C(C)C)CO)[C@H]2C(=O)OCC(C(=O)O)=C[C@H]12	Non-Toxic	Non-Toxic	inactive	inactive	inactive	inactive	inactive	inactive	inactive	inactive	inactive	inactive	inactive	inactive	–	–	–	–
CC(C)[C@H]1CC[C@@](O)(COC(=O)C2=C[C@H]3[C@@H](OC2)[C@H](CO)CC[C@@H]3C(C)C)[C@H]2C(=O)OCC(C(=O)O)=C[C@H]12	Non-Toxic	Non-Toxic	inactive	inactive	inactive	inactive	inactive	inactive	inactive	inactive	inactive	inactive	inactive	inactive	–	–	–	–
CC(C)[C@H]1CC[C@@](O)(COC(=O)/C(=C/[C@H]2C3=C(CC[C@@H]2C(C)C)COC3=O)CO)[C@H]2C(=O)OCC(C(=O)O)=C[C@H]12	Non-Toxic	Non-Toxic	inactive	inactive	inactive	inactive	inactive	inactive	inactive	inactive	inactive	inactive	inactive	inactive	–	Active	–	–
CC(C)[C@H]1CC[C@@](O)(COC(=O)C2=C[C@@H]3[C@@H](C(C)C)CC[C@@](O)(COC(=O)/C(=C/[C@H]4C5=C(CC[C@@H]4C(C)C)COC5=O)CO)[C@H]3C(=O)OC2)[C@H]2C(=O)OCC(C(=O)O)=C[C@H]12	Non-Toxic	Non-Toxic	inactive	inactive	inactive	inactive	inactive	inactive	inactive	inactive	inactive	inactive	inactive	inactive	–	–	1600 nM	10000
CC(C)[C@H]1CC[C@@](O)(COC(=O)C2=C[C@@H]3[C@@H](C(C)C)CC[C@@](O)(COC(=O)/C(=C/[C@H]4C=C(CO)CC[C@@H]4C(C)C)CO)[C@H]3C(=O)OC2)[C@H]2C(=O)OCC(C(=O)O)=C[C@H]12	Non-Toxic	Non-Toxic	inactive	inactive	inactive	inactive	inactive	inactive	inactive	inactive	inactive	inactive	inactive	inactive	Not Active	–	–	–
CN[C@H](CC(C)C)C(=O)N[C@H]1C(=O)N[C@@H](CC(N)=O)C(=O)N[C@H]2C(=O)N[C@H]3C(=O)N[C@H](C(=O)N[C@H](C(=O)O)c4cc(O)cc(O)c4-c4cc3ccc4O)[C@H](O)c3ccc(c(Cl)c3)Oc3cc2cc(c3O[C@@H]2O[C@H](CO)[C@@H](O)[C@H](O)[C@H]2O[C@H]2C[C@](C)(N)[C@H](O)[C@H](C)O2)Oc2ccc(cc2Cl)[C@H]1O [VANCOMYCIN]	–	–	–	–	–	–	–	–	–	–	–	–	–	–	–	–	–	100
CC(C)[C@H]1CC[C@@](O)(COC(=O)/C(=C/[C@H]2C=C(CO)CC[C@@H]2C(C)C)CO)[C@H]2C(=O)OCC(C(=O)O[C@@]34CC[C@H](C(C)C)[C@@H](/C=C(\CO)C(=O)O)[C@@H]3C(=O)OC4)=C[C@H]12	Non-Toxic	Non-Toxic	inactive	inactive	inactive	inactive	inactive	inactive	inactive	inactive	inactive	inactive	inactive	inactive	Not Active	–	–	–
CC(C)[C@H]1CC[C@@]2(OC(=O)/C(=C/[C@H]3C=C(CO)CC[C@@H]3C(C)C)CO)COC(=O)[C@H]2[C@@H]1/C=C(\CO)C(=O)O	Non-Toxic	Non-Toxic	inactive	inactive	inactive	inactive	inactive	inactive	inactive	inactive	inactive	inactive	inactive	inactive	–	–	–	–
